Data on 36 molecules can be found in ChEMBL document CHEMBL4138135, “Optimization of physicochemical properties for 4-anilinoquinazoline inhibitors of trypanosome proliferation” (Eur J Med Chem, 2017).

A short description of data set [1]: Distribution coefficient, log D of the compound at pH 7.4. The conditions noted are these: octanol/water. Type of data set: physicochemical.
Data set [2] is described as follows: Lipophilicity, log P of the compound. In kind it is physicochemical. The conditions noted are these: octanol/water.

In general, logD refers to lipophilicity at a set pH, counting ionised and neutral species. Broadly, the logP is the decadic logarithm of the partition coefficient of the neutral form, usually between octanol and water. Regarding `O=C(CN1CCOCC1)Nc1ccc2ncnc(Nc3ccc(OCc4cccc(F)c4)c(Cl)c3)c2c1`, the logD in data set [1] (read-out: logD) stood at 4.5. Also, the logP in data set [2] (read-out: logP) stood at 4.7. The like results for `c1cc(-c2ccc3ncnc(Nc4cccnn4)c3c2)cc(N2CCOCC2)c1` were, in that order, 3 and 3.4. The like results for `Cc1nnc(Nc2ncnc3ccc(-c4cccc(N5CCOCC5)c4)cc23)nc1C` were, in that order, 2.8 and 3. The like results for `c1cnc(Nc2ncnc3ccc(-c4nccc(N5CCOCC5)n4)cc23)nc1` were, in that order, 2 and 2.9. In data set [1], `c1cc(Nc2ncnc3ccc(-c4ccnc(N5CCOCC5)n4)cc23)ccn1` gave a logD of 3.8. For the same molecule, in data set [2], the logP amounted to 2.9. Take `CCn1nccc1Nc1ncnc2ccc(-c3cccc(N4CCOCC4)c3)cc12`: the logD in data set [1] (read-out: logD) turned out to be 3.2. The logP in data set [2] (read-out: logP) worked out at 3.9. With `c1cc(-c2ccc3ncnc(Nc4cncs4)c3c2)cc(N2CCOCC2)c1`, the logP in data set [2] (read-out: logP) worked out at 3.8. Still for that read-out and setting: to `Cc1cnc(Nc2ncnc3ccc(-c4cccc(N5CCOCC5)c4)cc23)s1` belongs 5.

With `O=c1nc(Nc2ncnc3ccc(-c4cccc(N5CCOCC5)c4)cc23)c(F)c[nH]1`, in data set [1] (read-out: logD), the logD stood at 2.2. Moreover, in data set [2] (read-out: logP), the logP amounted to 2.7. On to `c1cc(-c2ccc3ncnc(Nc4ccnnc4)c3c2)cc(N2CCOCC2)c1`, for which, in data set [1], the logD is on record as 3.1. The molecule further gave a logP in data set [2] of 2.8. In the case of `c1cc(-c2ccc3ncnc(Nc4nccnn4)c3c2)cc(N2CCOCC2)c1`, the logP in data set [2] (read-out: logP) worked out at 2.8. Turning to `Fc1cccc(COc2ccc(Nc3ncnc4ccc(-c5nnc(N6CCOCC6)[nH]5)cc34)cc2Cl)c1`, the logP in data set [2] (read-out: logP) came to 5.3. Consider `c1cc(-c2ccc3ncnc(Nc4nccs4)c3c2)cc(N2CCOCC2)c1`, for which the logP in data set [2] (read-out: logP) is 4.3. For `COc1cnc(Nc2ncnc3ccc(-c4cccc(N5CCOCC5)c4)cc23)cn1`, in data set [1] (read-out: logD), the logD was determined as 3.8. Besides, in data set [2] (read-out: logP), the logP amounted to 3.6. The like results for `c1cncc(Nc2ncnc3ccc(-c4cccc(N5CCOCC5)c4)cc23)c1` were, in that order, 3.9 and 3.8.

Consider `Cc1cnnc(Nc2ncnc3ccc(-c4cccc(N5CCOCC5)c4)cc23)c1`, for which, in data set [2] (read-out: logP), the logP came out at 3.9.

On to `c1cc(-c2ccc3ncnc(Nc4ncco4)c3c2)cc(N2CCOCC2)c1`, for which the logP in data set [2] (read-out: logP) amounted to 3.6.

Regarding `O=c1nc(Nc2ncnc3ccc(-c4cccc(N5CCOCC5)c4)cc23)cc[nH]1`, the logP in data set [2] (read-out: logP) stood at 2.5. Consider `c1cnc(Nc2ncnc3ccc(-c4cccc(N5CCOCC5)c4)cc23)nc1`, for which, in data set [1] (read-out: logD), the logD was 2.5. In data set [2] (read-out: logP), the logP was determined as 3.8.

As for `Fc1cccc(COc2ccc(Nc3ncnc4ccc(-c5nccc(N6CCOCC6)n5)cc34)cc2Cl)c1`, the logP in data set [2] (read-out: logP) turned out to be 6.5. As to `c1cnc(Nc2ncnc3ccc(-c4ccnc(N5CCOCC5)n4)cc23)nc1`, the logD in data set [1] (read-out: logD) stood at 2.5. Besides, the logP in data set [2] (read-out: logP) is 2.9. With `c1cc(-c2ccc3ncnc(Nc4cnccn4)c3c2)cc(N2CCOCC2)c1`, the logD in data set [1] (read-out: logD) was 3.1. In data set [2] (read-out: logP), the logP came to 3.2.

In data set [1], `c1cc(Nc2ncnc3ccc(-c4nccc(N5CCOCC5)n4)cc23)ccn1` showed a logD of 3.4. Besides, in data set [2], the logP stood at 3. With `COc1ccc(Nc2ncnc3ccc(-c4cccc(N5CCOCC5)c4)cc23)cc1Cl`, the logP in data set [2] (read-out: logP) was determined as 5.4. With `c1ccc(Nc2ncnc3ccc(-c4cccc(N5CCOCC5)c4)cc23)nc1`, the logD in data set [1] (read-out: logD) was 3.9. In data set [2] (read-out: logP), the logP is 4.4. For the molecule `Fc1cccc(COc2ccc(Nc3ncnc4ccc(-n5nncc5CN5CCOCC5)cc34)cc2Cl)c1`, the logP in data set [2] (read-out: logP) was 5.1. The same measure, in the same setting: to `c1cc(-c2ccc3ncnc(Nc4nncs4)c3c2)cc(N2CCOCC2)c1` belongs 3.5. Take `c1cc(-c2ccc3ncnc(Nc4cncnc4)c3c2)cc(N2CCOCC2)c1`: the log distribution coefficient (logD) in data set [1] (read-out: logD) stood at 3.2. Also, the logP in data set [2] (read-out: logP) is 3.1. For `Nc1cccnc1Nc1ncnc2ccc(-c3cccc(N4CCOCC4)c3)cc12` the same measures were 2.8 and 3.5. The like results for `c1cc(-c2ccc3ncnc(Nc4ccncn4)c3c2)cc(N2CCOCC2)c1` were, in that order, 3.1 and 3.7. As for `Fc1cccc(COc2ccc(Nc3ncnc4ccc(-c5ccnc(N6CCOCC6)n5)cc34)cc2Cl)c1`, the logP in data set [2] (read-out: logP) stood at 6.5. Turning to `Cc1ccnc(Nc2ncnc3ccc(-c4cccc(N5CCOCC5)c4)cc23)n1`, in data set [1] (read-out: logD), the logD is 2.9. For the same molecule, the logP in data set [2] (read-out: logP) came to 3.9. For `Nc1ncccc1Nc1ncnc2ccc(-c3cccc(N4CCOCC4)c3)cc12` the same measures were 2.9 and 3.5. The like results for `CC(=O)Nc1cccnc1Nc1ncnc2ccc(-c3cccc(N4CCOCC4)c3)cc12` were, in that order, 3.2 and 3.6. The like results for `c1cc(-c2ccc3ncnc(Nc4ccncc4)c3c2)cc(N2CCOCC2)c1` were, in that order, 4.1 and 3.8. For `Cc1cc(Nc2ncnc3ccc(-c4cccc(N5CCOCC5)c4)cc23)on1`, the lipophilicity (logP) in data set [2] (read-out: logP) was 3.6.
